Data as given in DBAASP.
≈ marks a conversion by molar mass, not a printed value.

Columns and labels:
Assay in all cases: ≥ marks a high value that may be exact or a test limit, other limits are often not marked, values filed in µg/mL are converted to µM
[1] = test system: Bacillus subtilis
[2] = test system: Escherichia coli
[3] = test system: Klebsiella pneumoniae
[4] = test system: Micrococcus luteus
[5] = test system: Proteus mirabilis
[6] = test system: Pseudomonas aeruginosa
[7] = test system: Salmonella typhimurium
[8] = test system: Shigella dysenteriae
[9] = test system: Staphylococcus aureus
[10] = test system: Staphylococcus epidermidis
[11] = test system: Candida albicans
[12] = test system: Saccharomyces cerevisiae
[13] = test system: Serratia marcescens
[14] = test system: Escherichia coli HB101
[15] = test system: Clavibacter michiganensis subsp. michiganensis DSM 46294
[16] = test system: Pectobacterium carotovorum subsp. carotovorum DSM 30168
[17] = test system: Pseudomonas corrugata DSM 7228
[18] = test system: Pseudomonas syringae pv. syringae DSM 10604
[19] = test system: Pseudomonas syringae pv. tomato DC3000
[20] = test system: Xanthomonas vesicatoria DSM 50861
[21] = test system: Enterococcus faecalis ATCC 29212
[22] = test system: Escherichia coli ATCC 25922
[23] = test system: Salmonella enterica subsp. enterica serovar Pullorum C79-13
[24] = test system: Salmonella enterica subsp. enterica serovar Typhimurium C77-31
[25] = test system: Staphylococcus aureus ATCC 29213
[26] = test system: Staphylococcus epidermidis ATCC 12228

Row | MIC [1] [µM] | MIC [2] [µM] | MIC [3] [µM] | MIC [4] [µM] | MIC [5] [µM] | MIC [6] [µM] | MIC [7] [µM] | MIC [8] [µM] | MIC [9] [µM] | MIC [10] [µM] | MIC [15] [µM] | MIC [16] [µM] | MIC [17] [µM] | MIC [18] [µM] | MIC [19] [µM] | MIC [20] [µM] | Compound | also measured
1 | ≥ 169 | > 169 | > 169 | ≥ 169 | ≥ 169 | > 169 | ≥ 169 | ≥ 169 | > 169 | ≥ 169 |  |  |  |  |  |  | CC(C)C[C@H](NC(=O)[C@H](C)NC(=O)CNC(=O)[C@H](CC(C)C)NC(=O)[C@@H](N)Cc1ccccc1)C(=O)N[C@@H](Cc1ccccc1)C(=O)N[C@@H](CCCCN)C(=O)N[C@H](C(=O)N[C@@H](C)C(=O)N[C@@H](CO)C(=O)N[C@@H](CCCCN)C(=O)O)C(C)C [FLGALFKVASK] | 
2 | ≥ 40.9 | 164 (≈ 200 µg/mL) | 81.8 (≈ 100 µg/mL) | 10.2 (≈ 12.5 µg/mL) | ≥ 164 | > 164 | ≥ 164 | ≥ 164 | 20.4 (≈ 25 µg/mL) | ≥ 40.9 |  |  |  |  |  |  | CC(C)C[C@H](NC(=O)CNC(=O)[C@H](CC(C)C)NC(=O)[C@@H](N)Cc1ccccc1)C(=O)N[C@@H](CC(C)C)C(=O)N[C@@H](Cc1ccccc1)C(=O)N[C@@H](CCCCN)C(=O)N[C@H](C(=O)N[C@@H](C)C(=O)N[C@@H](CO)C(=O)N[C@@H](CCCCN)C(=O)O)C(C)C [FLGLLFKVASK] | 
3 | 8.54 (≈ 12.5 µg/mL) | 4.3 (≈ 6.3 µg/mL) | 2.12 (≈ 3.1 µg/mL) | 2.12 (≈ 3.1 µg/mL) | ≥ 137 | 17.1 (≈ 25 µg/mL) | 8.54 (≈ 12.5 µg/mL) | 4.3 (≈ 6.3 µg/mL) | 2.12 (≈ 3.1 µg/mL) | 2.12 (≈ 3.1 µg/mL) |  |  |  |  |  |  | CC(C)C[C@H](NC(=O)[C@@H](NC(=O)[C@H](CCCCN)NC(=O)[C@H](CO)NC(=O)[C@H](C)NC(=O)[C@@H](NC(=O)[C@H](CCCCN)NC(=O)[C@H](Cc1ccccc1)NC(=O)[C@H](CC(C)C)NC(=O)[C@H](C)NC(=O)[C@H](CCCCN)NC(=O)[C@H](CC(C)C)NC(=O)[C@@H](N)Cc1ccccc1)C(C)C)C(C)C)C(=O)O [FLKALFKVASKVL] | 
4 | 17.8 (≈ 50 µg/mL) | 8.88 (≈ 25 µg/mL) |  | 0.888 (≈ 2.5 µg/mL) | ≥ 35.5 | 17.8 (≈ 50 µg/mL) | 26.6 (≈ 75 µg/mL) | 8.88 (≈ 25 µg/mL) |  | 17.8 (≈ 50 µg/mL) |  |  |  |  |  |  | CC[C@H](C)[C@H](NC(=O)CN)C(=O)N[C@@H](CC(C)C)C(=O)N[C@@H](CC(=O)O)C(=O)N[C@H](C(=O)N[C@@H](CC(C)C)C(=O)N[C@@H](CCCCN)C(=O)N[C@@H](CCC(N)=O)C(=O)N[C@@H](Cc1ccccc1)C(=O)N[C@@H](C)C(=O)N[C@@H](CCCCN)C(=O)NCC(=O)N[C@H](C(=O)NCC(=O)N[C@@H](CCCCN)C(=O)N[C@@H](CC(=O)O)C(=O)N[C@@H](CC(C)C)C(=O)N[C@H](C(=O)N[C@@H](CCCCN)C(=O)NCC(=O)N[C@@H](C)C(=O)N[C@@H](C)C(=O)N[C@@H](CCC(N)=O)C(=O)NCC(=O)N[C@H](C(=O)N[C@@H](CC(C)C)C(=O)N[C@@H](CO)C(=O)N[C@H](C(=O)O)[C@@H](C)O)C(C)C)C(C)C)C(C)C)[C@@H](C)O [GILDTLKQFAKGVGKDLVKGAAQGVLST] | MIC [11]: > 35.5 µM; MIC [12]: 8.88 µM (≈ 25 µg/mL); MIC [13]: ≥ 35.5 µM
5 | 5.2 (≈ 11.8 µg/mL) |  |  |  |  | 10.4 (≈ 23.7 µg/mL) | 1.3 (≈ 2.96 µg/mL) |  | 10.4 (≈ 23.7 µg/mL) |  |  |  |  |  |  |  | CC[C@H](C)[C@H](NC(=O)[C@@H](NC(=O)[C@@H]1CCCN1C(=O)[C@@H](NC(=O)[C@@H]1CCCN1C(=O)[C@H](CCCCN)NC(=O)[C@H](CCCCN)NC(=O)[C@H](CO)NC(=O)CN)C(C)C)[C@@H](C)CC)C(=O)N[C@@H](Cc1ccc(O)cc1)C(=O)N[C@H]1CSSC[C@@H](C(=O)N[C@@H](CCC(N)=O)C(=O)N[C@@H](CCCN=C(N)N)C(=O)N[C@@H](CCSC)C(=O)O)NC(=O)[C@H](CCCCN)NC(=O)[C@H](CCCN=C(N)N)NC(=O)[C@H](CCCN=C(N)N)NC(=O)[C@H](CC(N)=O)NC1=O [GSKKPVPIIYCNRRKCQRM] | MIC [14]: 2.6 µM (≈ 5.92 µg/mL)
6 |  |  |  |  |  |  |  |  |  |  | 0.989 (≈ 2.5 µg/mL) | 3.96 (≈ 10 µg/mL) | 3.96 (≈ 10 µg/mL) | 3.96 (≈ 10 µg/mL) | 0.989 (≈ 2.5 µg/mL) | 0.396 (≈ 1 µg/mL) | CC[C@H](C)[C@H](NC(=O)[C@H](CC(C)C)NC(=O)[C@H](CCCCN)NC(=O)[C@@H](NC(=O)[C@@H](NC(=O)[C@H](CC(C)C)NC(=O)[C@H](CCCCN)NC(=O)[C@H](CC(C)C)NC(=O)[C@@H](NC(=O)[C@H](CCCN=C(N)N)NC(=O)[C@@H](NC(=O)[C@H](CC(C)C)NC(=O)[C@@H](NC(=O)[C@H](CCCN=C(N)N)NC(=O)[C@H](CCCN=C(N)N)NC(=O)[C@@H](N)CCCCN)[C@@H](C)CC)[C@@H](C)CC)[C@@H](C)CC)[C@@H](C)CC)[C@@H](C)CC)C(=O)N[C@@H](CC(C)C)C(=O)N[C@@H](CCCCN)C(=O)N[C@@H](CCCCN)C(=O)N[C@@H](CCCN=C(N)N)C(N)=O [KRRILIRILKLIIKLILKKR] | 
7 |  |  |  |  |  |  |  |  |  |  | 0.635 (≈ 0.999 µg/mL) | 1.59 (≈ 2.5 µg/mL) | 0.318 (≈ 0.5 µg/mL) | 0.159 (≈ 0.25 µg/mL) | 0.159 (≈ 0.25 µg/mL) | 0.635 (≈ 0.999 µg/mL) | CC(C)C[C@H](NC(=O)[C@H](C)NC(=O)[C@H](CCCN=C(N)N)NC(=O)[C@H](CCCN=C(N)N)NC(=O)[C@H](C)NC(=O)[C@H](Cc1ccccc1)NC(=O)[C@H](CCCN=C(N)N)NC(=O)[C@@H](N)CC(C)C)C(=O)N[C@@H](CCCN=C(N)N)C(=O)N[C@@H](CCCN=C(N)N)C(=O)N[C@@H](CC(C)C)C(=O)N[C@@H](Cc1ccccc1)C(N)=O [LRFARRALRRLF] | 
8 |  |  |  |  |  |  |  |  |  |  |  |  |  |  |  |  | CC(C)C[C@H](NC(=O)[C@@H](NC(=O)[C@@H](NC(=O)[C@@H](N)CC(C)C)C(C)C)[C@@H](C)O)C(=O)N[C@H](C(=O)N[C@@H](Cc1ccccc1)C(=O)N[C@H](C(=O)NCC(=O)NCC(=O)NCC(=O)N[C@@H](Cc1c[nH]c2ccccc12)C(=O)N[C@@H](CCCCN)C(=O)N[C@@H](Cc1c[nH]c2ccccc12)C(=O)N[C@@H](CCCCN)C(=O)N[C@@H](Cc1c[nH]c2ccccc12)C(=O)N[C@@H](CCC(=O)O)C(=O)N[C@@H](CC(N)=O)C(=O)NCC(=O)N[C@@H](CCCCN)C(=O)N[C@@H](Cc1c[nH]c2ccccc12)C(=O)N[C@@H](CCCCN)C(=O)N[C@@H](Cc1c[nH]c2ccccc12)C(=O)N[C@@H](CCC(N)=O)C(=O)N[C@@H](Cc1c[nH]c2ccccc12)C(=O)O)C(C)C)C(C)C [LVTLVFVGGGWKWKWENGKWKWQW] | MIC [21]: > 128 µM; MIC [22]: > 128 µM; MIC [23]: ≥ 128 µM; MIC [24]: ≥ 128 µM; MIC [25]: > 128 µM; MIC [26]: > 128 µM
9 |  |  |  |  |  |  |  |  |  |  | 3.16 (≈ 5 µg/mL) | 6.33 (≈ 9.99 µg/mL) | 0.158 (≈ 0.25 µg/mL) | 0.0633 (≈ 0.1 µg/mL) | 0.633 (≈ 0.999 µg/mL) | 3.16 (≈ 5 µg/mL) | CC(C)C[C@H](NC(=O)[C@H](CC(C)C)NC(=O)[C@H](CCCN=C(N)N)NC(=O)[C@H](CCCCN)NC(=O)[C@H](CC(C)C)NC(=O)[C@H](CC(C)C)NC(=O)[C@H](CCCCN)NC(=O)[C@H](CCCCN)NC(=O)[C@H](CCCN=C(N)N)NC(=O)[C@H](CCCCN)NC(=O)[C@H](CCCCN)NC(=O)[C@@H](N)CCCN=C(N)N)C(N)=O [RKKRKKLLKRLL] | 
10 |  |  |  |  |  |  |  |  |  |  |  |  |  |  |  |  | CC[C@H](C)[C@H](NC(=O)[C@H](CCCN=C(N)N)NC(=O)[C@@H](N)CCCN=C(N)N)C(=O)N[C@@H](CCCN=C(N)N)C(=O)N1CCC[C@H]1C(=O)N[C@@H](CCCN=C(N)N)C(=O)N1CCC[C@H]1C(=O)N[C@@H](CCCN=C(N)N)C(=O)N[C@@H](CS)C(=O)O [RRIRPRPRC] | MIC [22]: > 128 µM; MIC [14]: ≥ 128 µM
